Experiments:
Dermanyssus gallinae = test: Antiparasitic efficacy on live chickens with natural mite infestation; assay type: in vivo; settings: by day 5 of treatment; 0.25% (w/v) spray, 7.5 mg/kg once daily for 5 days
Description: Two animals are treated with the compound of Example 1, and two animals are treated with Fipronil, while one animal is left untreated as a negative control. The infestation by D. gallinae is monitored by checking the density of mites in particular areas of the animal's bodies (feet, legs, and wings), comparing pre-treatment levels of infestation to post-treatment levels.
When all pests have been eliminated, a 100% pest control capability was achieved. In the case of some chemical products, when the pest was not fully eliminated, the disinfestation capacity was measured by averaging the number of infesting organisms located in three distinct areas of the treated animals, at the beginning of the treatment, and at the end of the treatment.

[1] = Plasma concentration analysis in topically treated chickens; settings: Compound of Example 1 treatment, topical spray 7.5 mg/kg once daily
Description: To explore the therapeutic potential of the compounds of the present disclosure, live chickens with mite infestation (Dermanyssus gallinae) are treated topically with solutions of test compound, with Fipronil as a positive control. Test solutions are prepared by dissolving the test compound in a mixture of 2-butoxyethanol, ethanol, and water (7:2:1) to reach a final concentration of 0.25% (w/v).
The test solution is administered using a mechanical spray pump delivering 0.5 mL of solution per actuation. The test solution is sprayed over the entire surface of the animal's body from a distance of 10-20 centimeters, resulting in direct contact of the solution with the animal's skin. The dosage applied to each animal is 3 mL/kg, equivalent to 7.5 mg/kg (kg live weight). The dosage is achieved using six actuations of the spray per kg of body weight per day. The treatment is administered once daily for 5 days at 24 hours intervals. One animal is left untreated as a negative control.
Blood samples are taken from each animal before the first treatment (T=0), and at 24-hour intervals thereafter. Each egg produced after a treatment is collected for later analysis.
Plasma samples are derived from each blood sample using standard procedures immediately after blood collection. Plasma is stored frozen at −80° C. until the time of analysis. Samples are then thawed at room temperature and extraction is performed by solid phase extraction (SPE) (Strata-X 33. Polymeric Reversed Phase, 60 mg/3 mL, Phenomenex) on an aliquot of sample (100 μl) pretreated for protein precipitation with 300 μl of acetonitrile. After protein precipitation, the samples are well vortexed and then centrifuged (12000 rpm, 10 min, RT). Supernatant is collected and transferred to clean Falcon tubes and diluted with 3 ml of water. Strata-X columns are conditioned with 2 ml of methanol and with 2 ml of water. Samples are loaded after conditioning, and the columns are washed with 2 ml of water, and analytes are eluted with 2 nil of methanol, dried under nitrogen and then resuspended in 100 μl of acetonitrile for mass spectral analysis.
A Thermo Q-exactive mass spectrometer (Thermo Fisher Scientific, Waltham, MA) is used. The LC system, governed by Chromeleon X-press software, consists of a binary pump, a thermostated autosampler, and a column compartment, all Dionex Ultimate 3000 series modules (Thermo Fisher Scientific, Waltham, MA). A volume of 2 μL is injected for each sample. Chromatographic separation of analytes is conducted in reverse-phase chromatography. A Luna Omega 1.6 μm Polar (CIS, 2.1 mm×100 mm) is used, and the mobile phases are (A) water and (B) acetonitrile, both containing 0.1% v/v formic acid. […]
Plasma samples from Day 3 and Day 5 are analyzed.

SMILES: N#Cc1nn(-c2c(Cl)cc(C(F)(F)F)cc2Cl)c2nc(O)cc(C(F)(F)F)c12 [Example 1, 1-(2,6-dichloro-4-(trifluoromethyl)phenyl)-6-hydroxy-4-(trifluoromethyl)-1H-pyrazolo[3,4-b]pyridine-3-carbonitrile]
- Chickens free of mites (Dermanyssus gallinae): 100%
- Plasma concentration of analyte ([1]; Chicken 3, 3 days): 0.01 ppm
- Plasma concentration of analyte ([1]; Chicken 3, 5 days): 0.03 ppm
- Plasma concentration of analyte ([1]; Chicken 4, 3 days): 0.7 ppm
- Plasma concentration of analyte ([1]; Chicken 4, 5 days): 1.2 ppm
